Data published in PMC11831382, “Use of Aldehyde–Alkyne–Amine Couplings to Generate Medicinal Chemistry-Relevant Linkers” (ACS Medicinal Chemistry Letters, 2025).
“Also recorded” adds a separate entry of the source.

What was measured:
BRD4 = molecular target: T1, BRD4 (Homo sapiens, UniProt O60885); assay: BRD4 degradation assay, Promega Nano-Glo HiBiT lytic assay; type: cell-based; conditions: HEK293 CRISPR HiBiT BRD4 cell line
T1 construct: endogenous in cells; host or cells: HEK293 CRISPR HiBiT BRD4 (knock-in)
Method: Data plotted are average ± SD of n = 3 biological replicates.
HEK293 CRISPR HIBIT BRD4 cells were seeded at 5 X 10^5 cells per well in culture medium into
Plates were incubated at 37 °C, 5% CO2 in a humidiﬁed incubator overnight. Compounds (10 mM stock in DMSO) were diluted to a half-log scale and added to the cells. Plates were further incubated at 37 °C for 18 hours.
Following incubation, 100 μL per well Promega Nano -Glo HiBiT lytic detection reagent mix (Promega Nano -Glo HiBiT Lytic Detection System #N3050), prepared according to the manufacturer´s instructions in the kit, were added. The plates were incubated on an orbital shaker for 10 min. Luminescence was measured using plate reader (BMG L abtech PHERA star).

Solubility = type: physicochemical; conditions: for solubility (qualitative remark): visual or general observation; for solubility: 5% PBS buffer, saline
Text: (§1) Moreover, the solubility of both final compounds was low (5% PBS buffer, saline). These examples were merely chosen to showcase the synthetic potential of the chemistry rather than a medicinal chemistry-focused PROTAC optimization approach for which scope remains to optimize PK properties in future heterofunctional molecules. For example, the alkyne functionality, present in the A^3 products 2a and 2c, although present in a number of marketed, bioactive molecules,[37] even PROTACs,[38] acting as a rigid hydrophobic spacer, can be reduced by catalytic hydrogenation[39] to afford a saturated, more flexible yet possibly less metabolically labile linker.

[1] = Microsomal stability (HLM); type: in vitro ADME; conditions: human, human liver microsomes
Text: as §1

[2] = Bidirectional permeability (Papp A-B, B-A); type: in vitro ADME; conditions: for A-B Permeability: class in words; for Papp A→B / Papp B→A: not told; for Papp A→B: A-B direction; for Papp B→A: B-A direction
Text: (§2) Figure S3 . PK data for 7a and 7c.
(§3) (2 pictures or pasted objects on this page, not shown here)

[3] = molecular target: CRBN-DDB1 (cereblon DNA damage-binding protein 1 complex) (Homo sapiens, UniProt Q96SW2); assay: Fluorescence polarization (FP) CRBN-binding assay, direct titration; conditions: 1 nM 4c titrated with CRBN-DDB1, triplicates, read-out: dissociation constant (Kd)
Text: Medicinal chemistry scope was expanded by the synthesis of a few representative linkers, which were elaborated to modalities adorned with a cellular marker, an E3 ligase motif, and a free alcohol function. […] Initially, treatment with Pd(dba)2, dppb, and thiosalicylic acid removed the allyl protecting group to give 2m in 39% yield. The resulting secondary amine was coupled to a bodipy-containing carboxylic acid 3([25]) to afford the Boc-protected linker 4a (82% yield, Scheme 3). Simple Boc removal with acid exposed the secondary amine 4b intermediate, which was coupled to an acid comprising E3 ligand affording 4c. Such modalities have a free “handle” that could be added to a POI-binding ligand of choice, e.g., by substitution chemistry, esterification, or ether formation. […]
(§4) Following incubation, 100 μL per well Promega Nano -Glo HiBiT lytic detection reagent mix (Promega Nano -Glo HiBiT Lytic Detection System #N3050), prepared according to the manufacturer´s instructions in the kit, were added. […] Luminescence was measured using plate reader (BMG L abtech PHERA star).
(§5) Luminescence levels in the treatment wells were normalised to DMSO-treated samples and plotted as percentage of DMSO control in GraphPad Prism (10.2.3).Western blot 5x10^5 HEK293 CRISPR HIBIT BRD4 cells were seeded into 6-well plates 24 hours before treatment. […]
(§6) Fluorescence Polarization (FP). […]

BRD4 long and short = assay: Western blot of BRD4 degradation; type: cell-based
Method: Figure 2 Representative Western blot of 7a degradation of BRD4 performed in HEK293 cell line after 18 h treatment. The experiment was done as n = 3 independent biological replicates.
The best analogue, 7a, was next shown, by Western blot, to degrade both BRD4 long and short in the 300–1000 nM range, reversed by the addition of either proteasome or neddylation inhibitors or by thalidomide.
Cell culture. HEK293 CRISPR HIBIT BRD4 cells were generated at CeTPD using CRISPR -CAS technology. Parental HEK293 and HEK293 CRISPR HIBIT BRD4 cell lines were cultured in DMEM media (Gibco), supplemented with 10% fetal bovine serum (FBS), and were kept at 37 °C, 5% CO2 in a humidiﬁed incubator.
BRD4 Degradation A ssays used a HiBiT Lytic assay. […]
as §4, §5, §6

P-gp [4] = assay: Bidirectional permeability (Papp A-B, B-A); type: in vitro ADME; conditions: not told
Text: as §2, §3

P-gp [5] = molecular target: P-gp (Homo sapiens, UniProt P08183); assay: P-gp substrate classification from efflux ratio; type: in vitro ADME
Text: as §2, §3

Sequence of CRBN-DDB1 (cereblon DNA damage-binding protein 1 complex) (Q96SW2 whole entry): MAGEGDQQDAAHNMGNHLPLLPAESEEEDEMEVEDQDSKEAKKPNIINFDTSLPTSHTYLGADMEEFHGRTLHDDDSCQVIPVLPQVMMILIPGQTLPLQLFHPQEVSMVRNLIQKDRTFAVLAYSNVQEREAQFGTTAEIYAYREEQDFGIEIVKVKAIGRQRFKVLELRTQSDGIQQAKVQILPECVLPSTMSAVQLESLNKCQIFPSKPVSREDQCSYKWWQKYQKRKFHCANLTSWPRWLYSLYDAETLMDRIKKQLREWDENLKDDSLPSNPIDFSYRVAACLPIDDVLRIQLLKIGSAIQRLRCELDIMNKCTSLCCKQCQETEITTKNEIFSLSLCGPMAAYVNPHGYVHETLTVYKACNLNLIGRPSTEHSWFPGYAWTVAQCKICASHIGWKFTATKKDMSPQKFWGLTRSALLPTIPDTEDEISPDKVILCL
Sequence of CRBN-DDB1 (cereblon DNA damage-binding protein 1 complex) (Q16531 whole entry partner): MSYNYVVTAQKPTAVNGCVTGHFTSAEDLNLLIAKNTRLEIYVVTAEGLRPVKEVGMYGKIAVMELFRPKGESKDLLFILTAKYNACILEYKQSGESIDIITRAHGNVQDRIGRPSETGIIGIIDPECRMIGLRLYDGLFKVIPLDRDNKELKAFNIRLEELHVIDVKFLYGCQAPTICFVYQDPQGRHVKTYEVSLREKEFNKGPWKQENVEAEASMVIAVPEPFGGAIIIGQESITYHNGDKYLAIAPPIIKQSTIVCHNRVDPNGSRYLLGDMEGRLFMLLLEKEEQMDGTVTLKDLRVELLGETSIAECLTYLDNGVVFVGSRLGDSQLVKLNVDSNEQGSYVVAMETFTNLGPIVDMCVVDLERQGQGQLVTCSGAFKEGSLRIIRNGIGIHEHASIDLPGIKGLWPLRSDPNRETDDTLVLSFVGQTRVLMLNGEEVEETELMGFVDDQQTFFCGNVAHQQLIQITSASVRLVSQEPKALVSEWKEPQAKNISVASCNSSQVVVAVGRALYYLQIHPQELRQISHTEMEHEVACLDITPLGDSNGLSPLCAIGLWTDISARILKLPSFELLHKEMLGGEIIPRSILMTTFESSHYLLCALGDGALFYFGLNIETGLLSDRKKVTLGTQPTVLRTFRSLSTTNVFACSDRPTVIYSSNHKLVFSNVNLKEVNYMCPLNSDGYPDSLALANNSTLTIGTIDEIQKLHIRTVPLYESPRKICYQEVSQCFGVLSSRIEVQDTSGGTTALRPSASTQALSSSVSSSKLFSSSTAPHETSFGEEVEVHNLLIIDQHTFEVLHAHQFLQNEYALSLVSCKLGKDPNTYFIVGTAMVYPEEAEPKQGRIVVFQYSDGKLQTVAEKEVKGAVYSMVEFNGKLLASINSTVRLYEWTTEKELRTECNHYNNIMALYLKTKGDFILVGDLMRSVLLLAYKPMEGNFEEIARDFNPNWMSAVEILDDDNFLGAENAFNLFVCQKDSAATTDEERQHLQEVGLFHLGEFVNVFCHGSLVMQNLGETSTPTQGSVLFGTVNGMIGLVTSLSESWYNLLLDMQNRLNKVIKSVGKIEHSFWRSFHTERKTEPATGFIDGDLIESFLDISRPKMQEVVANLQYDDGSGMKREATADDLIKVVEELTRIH
Sequence of P-gp (Homo sapiens, UniProt P08183) (P08183 whole entry): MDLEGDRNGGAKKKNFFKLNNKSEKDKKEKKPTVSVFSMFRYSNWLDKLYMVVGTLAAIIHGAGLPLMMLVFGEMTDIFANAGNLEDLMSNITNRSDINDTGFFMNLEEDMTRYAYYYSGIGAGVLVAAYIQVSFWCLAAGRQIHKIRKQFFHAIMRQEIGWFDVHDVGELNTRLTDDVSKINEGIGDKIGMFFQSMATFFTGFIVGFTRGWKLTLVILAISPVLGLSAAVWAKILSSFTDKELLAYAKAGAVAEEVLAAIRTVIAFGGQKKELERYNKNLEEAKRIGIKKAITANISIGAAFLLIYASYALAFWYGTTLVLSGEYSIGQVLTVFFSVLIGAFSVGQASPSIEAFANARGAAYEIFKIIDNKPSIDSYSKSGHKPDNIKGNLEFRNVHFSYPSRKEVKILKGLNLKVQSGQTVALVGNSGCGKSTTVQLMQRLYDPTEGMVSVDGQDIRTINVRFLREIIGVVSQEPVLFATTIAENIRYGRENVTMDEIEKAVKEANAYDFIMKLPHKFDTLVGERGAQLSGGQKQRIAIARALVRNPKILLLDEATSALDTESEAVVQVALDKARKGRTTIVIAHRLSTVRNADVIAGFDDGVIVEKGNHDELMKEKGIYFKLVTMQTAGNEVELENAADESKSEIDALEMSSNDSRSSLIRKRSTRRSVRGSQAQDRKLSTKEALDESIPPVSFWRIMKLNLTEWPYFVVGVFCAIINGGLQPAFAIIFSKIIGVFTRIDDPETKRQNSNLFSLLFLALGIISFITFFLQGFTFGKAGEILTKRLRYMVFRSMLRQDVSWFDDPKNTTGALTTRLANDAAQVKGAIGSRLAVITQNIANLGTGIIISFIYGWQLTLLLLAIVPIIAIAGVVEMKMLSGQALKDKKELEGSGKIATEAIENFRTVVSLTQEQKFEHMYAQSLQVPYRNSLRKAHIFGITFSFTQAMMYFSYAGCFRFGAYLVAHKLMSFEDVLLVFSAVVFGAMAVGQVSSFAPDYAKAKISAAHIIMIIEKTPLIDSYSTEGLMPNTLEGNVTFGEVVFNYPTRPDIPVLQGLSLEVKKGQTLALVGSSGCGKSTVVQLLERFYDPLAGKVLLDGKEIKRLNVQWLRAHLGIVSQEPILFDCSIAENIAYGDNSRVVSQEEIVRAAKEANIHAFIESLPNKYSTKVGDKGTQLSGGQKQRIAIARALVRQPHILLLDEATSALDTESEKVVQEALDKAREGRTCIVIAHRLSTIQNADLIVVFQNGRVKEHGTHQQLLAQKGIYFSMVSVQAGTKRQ

DC50 (BRD4; 18 h)	half-life at 1 h [1]	microsomal CLint [1]	A-B Permeability [2]	Papp A→B [2]	Papp B→A [2]	solubility (Solubility)	DC50 (BRD4; 18 h after dosage)	efflux ratio (P-gp [4])	P-gp Substrate (P-gp [5])	Compound	solubility (qualitative remark) (Solubility)	Kd [3]	degradation on addition of proteasome or neddylation inhibitors or thalidomide (BRD4 long and short; 10 µM 7a with 10 µM MG132, MLN4924 or thalidomide, 18 h)	concentration range degrading BRD4 long and short (BRD4 long and short; HEK293 cell line, 18 h treatment)
> 1000 nM										Cc1ncsc1-c1ccc(CNC(=O)[C@@H]2C[C@@H](O)CN2C(=O)[C@@H](NC(=O)CCCCC(=O)NC2CCN(C(C#CCCSc3ccc(C(=O)NCCNC(=O)C[C@@H]4N=C(c5ccc(Cl)cc5)c5c(sc(C)c5C)-n5c(C)nnc54)cc3)C3CCOCC3)CC2)C(C)(C)C)cc1 (stereo partly shown) [Compound 7b]	poor solubility; also recorded: visibly poorly soluble			
> 1000 nM	17.5 min	79.1 µL/min/mg	low permeability and Low	< 0.1 ×10⁻⁶ cm/s	< 0.1 ×10⁻⁶ cm/s	low solubility				Cc1sc2c(c1C)C(c1ccc(Cl)cc1)=N[C@@H](CC(=O)NCC#CC(C1CCN(C(=O)COc3cccc4c3C(=O)N(C3CCC(=O)NC3=O)C4=O)CC1)N1CCN(C(=O)COc3cccc4c3C(=O)N(C3CCC(=O)NC3=O)C4=O)CC1)c1nnc(C)n1-2 (stereo partly shown) [Compound 7c]	poor solubility			
										CC1=CC(C)=[N+]2C1=C(CCC(=O)N1CCN(C(C#CCCO)C3CCC(NC(=O)CCOCCOCCNC(=O)c4ccc5c(c4)C(=O)N(C4CCC(=O)NC4=O)C5=O)CC3)CC1)c1c(C)cc(C)n1[B-]2(F)F (stereo not shown) [Compound 4c]		166 ± 3.5 nM		
	6.64 min	209 µL/min/mg	low permeability and Low	0.007 ×10⁻⁶ cm/s	0.01 ×10⁻⁶ cm/s	low solubility	89.4 nM	1.4	Not-Substrate	Cc1sc2c(c1C)C(c1ccc(Cl)cc1)=N[C@@H](CC(=O)NCCNC(=O)c1ccc(SCCC#CC(C3CCOCC3)N3CCC(NC(=O)COc4cccc5c4C(=O)N(C4CCC(=O)NC4=O)C5=O)CC3)cc1)c1nnc(C)n1-2 (stereo partly shown) [Compound 7a]			reversed	300 to 1000 nM
